Results as given in PMC3842171 (Bioorganic & medicinal chemistry letters, 2011).

Assays:
HDAC1, HDAC3, and HDAC6 = assay: Single-concentration isoform selectivity screen with Fluor de Lys kit; format: biochemical
[1] = tested on: HDAC activity (HeLa cell lysates); assay: Fluor de Lys in vitro fluorescence HDAC activity assay using HeLa cell lysates; format: biochemical

| SMILES | isoform preference in single-concentration screen (HDAC1, HDAC3, and HDAC6; 32 µM) | fold decreased activity compared to the methyl analogue 1e [1] | fold less potent than SAHA ([1]; IC50 ratio versus SAHA) | isoform preference in single-concentration screen (HDAC1, HDAC3, and HDAC6; 375 nM) |
| --- | --- | --- | --- | --- |
| CCCCC(CCCCC(=O)Nc1ccccc1)CC(=O)NO (stereo not shown) [Compound 1a, C3-n-butyl SAHA] | preference for HDAC6 over HDAC3 | – | – | – |
| O=C(CC(CCCCC(=O)Nc1ccccc1)c1ccccc1)NO (stereo not shown) [Compound 1b] | preference for HDAC6 over HDAC3 | – | – | – |
| CCC(CCCCC(=O)Nc1ccccc1)CC(=O)NO (stereo not shown) [Compound 1c] | greater potency for HDAC6 over HDAC1 and HDAC3 | 91 fold | – | – |
| C=CC(CCCCC(=O)Nc1ccccc1)CC(=O)NO (stereo not shown) [Compound 1d] | preference for HDAC6 over HDAC3 | – | – | – |
| CC(CCCCC(=O)Nc1ccccc1)CC(=O)NO (stereo not shown) [Compound 1e] | – | – | 4 fold | slight preference for HDAC1 over HDAC3 and HDAC6 |
